Experimental data: US20260374739A1, “SMALL MOLECULAR WEIGHT CHEMICAL COMPOUND TO ANTAGONIZE EPH-EPHRIN TETRAMERIZATION AND INHIBIT BIDIRECTIONAL SIGNALING” (THE BOARD OF REGENTS OF THE UNIVERSITY OF TEXAS SYSTEM, priority 2022, published 2026)
“Also recorded” adds a separate entry of the source.

How the values were obtained:
EphB1-Fc / EB2-His = target: T1, EphB1-Fc / EB2-His (Rattus norvegicus, UniProt P09759); assay: pulldown EB2-His to EphB1-Fc; assay type: binding, mouse EB2; conditions: 50 and 250 μM for A20; listed as A20
T1 construct: mouse (Mus musculus) EB2-His ectodomain, pulldown
T1 sequence (P09759 18-538): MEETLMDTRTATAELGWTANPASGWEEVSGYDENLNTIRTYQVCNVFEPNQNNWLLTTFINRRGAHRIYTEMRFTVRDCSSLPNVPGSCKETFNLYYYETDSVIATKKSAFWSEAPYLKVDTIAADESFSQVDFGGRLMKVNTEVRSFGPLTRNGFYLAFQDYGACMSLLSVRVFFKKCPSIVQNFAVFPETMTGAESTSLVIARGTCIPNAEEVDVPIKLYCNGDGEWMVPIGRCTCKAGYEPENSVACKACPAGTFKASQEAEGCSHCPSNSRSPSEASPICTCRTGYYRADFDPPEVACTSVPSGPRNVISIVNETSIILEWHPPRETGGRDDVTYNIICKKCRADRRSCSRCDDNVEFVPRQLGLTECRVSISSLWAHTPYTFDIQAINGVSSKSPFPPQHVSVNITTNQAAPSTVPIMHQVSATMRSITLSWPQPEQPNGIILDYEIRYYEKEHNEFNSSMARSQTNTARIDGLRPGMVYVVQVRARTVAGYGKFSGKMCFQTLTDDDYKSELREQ
From the text: A20, E13, and other compounds from the top 32 hits were then characterized in pulldown assays. EphB1-Fc was immobilized onto Protein A agarose beads, then mixed with compounds and the soluble EB2-His ectodomain for 1 hr at RT, after which protein complexes were washed and then bound EB2 was detected by immunoblot using anti-His antibodies.

EphB2-His-Fc / EB2-His = target: T2, EphB2-His-Fc / EB2-His (Mus musculus, UniProt P54763); assay: pulldown EB2-His to EphB2-His-Fc; assay type: binding
T2 construct: a dual-tagged EphB2-His-Fc ectodomain protein; mouse EB2-His residues 18-232; purchased R&D Systems (EphB-Fc); Sino Biologicals (EphrinB-His)
T2 sequence (P54763 19-543 limits assumed): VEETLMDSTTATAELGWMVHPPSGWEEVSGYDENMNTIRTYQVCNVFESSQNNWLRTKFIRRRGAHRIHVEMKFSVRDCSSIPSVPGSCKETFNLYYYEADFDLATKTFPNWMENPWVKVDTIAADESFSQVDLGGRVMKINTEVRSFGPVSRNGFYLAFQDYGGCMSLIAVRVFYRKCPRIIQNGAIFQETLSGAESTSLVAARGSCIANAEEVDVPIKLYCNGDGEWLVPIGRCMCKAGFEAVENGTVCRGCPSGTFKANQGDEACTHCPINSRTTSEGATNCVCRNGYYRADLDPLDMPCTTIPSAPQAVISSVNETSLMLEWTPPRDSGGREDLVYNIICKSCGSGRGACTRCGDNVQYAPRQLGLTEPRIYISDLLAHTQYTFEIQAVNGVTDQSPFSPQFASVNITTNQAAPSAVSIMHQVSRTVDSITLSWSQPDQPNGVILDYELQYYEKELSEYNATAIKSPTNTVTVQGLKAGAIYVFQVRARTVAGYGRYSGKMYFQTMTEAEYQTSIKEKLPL

EphB4-Fc / EB2-His = target: T3, EphB4-Fc / EB2-His (Mus musculus, UniProt P54761); assay: pulldown EB2-His to EphB4-Fc; assay type: binding; conditions: up to 250 μM for A20; listed as A20
T3 construct: soluble mouse EB2-His ectodomain, pulldown
T3 sequence (P54761 16-539 limits assumed): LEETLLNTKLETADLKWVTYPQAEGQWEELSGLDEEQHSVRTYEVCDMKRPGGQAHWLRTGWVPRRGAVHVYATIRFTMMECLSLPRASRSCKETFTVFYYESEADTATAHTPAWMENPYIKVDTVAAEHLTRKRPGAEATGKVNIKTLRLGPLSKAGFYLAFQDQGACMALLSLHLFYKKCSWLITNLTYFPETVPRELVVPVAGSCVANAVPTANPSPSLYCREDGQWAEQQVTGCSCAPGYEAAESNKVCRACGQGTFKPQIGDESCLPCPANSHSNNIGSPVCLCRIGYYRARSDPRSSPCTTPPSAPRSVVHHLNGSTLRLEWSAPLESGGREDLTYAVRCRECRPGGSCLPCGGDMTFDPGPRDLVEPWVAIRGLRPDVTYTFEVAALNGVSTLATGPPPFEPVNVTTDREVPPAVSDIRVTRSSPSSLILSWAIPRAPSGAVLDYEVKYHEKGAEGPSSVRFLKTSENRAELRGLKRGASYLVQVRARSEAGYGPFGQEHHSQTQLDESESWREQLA

EphrinB1-EphB1 = target: T4, EphrinB1-EphB1 (Homo sapiens, UniProt P54762); assay: Octet, immobilized human EphrinB1 binding to human EphB1
T4 sequence (P54762 18-540 limits assumed): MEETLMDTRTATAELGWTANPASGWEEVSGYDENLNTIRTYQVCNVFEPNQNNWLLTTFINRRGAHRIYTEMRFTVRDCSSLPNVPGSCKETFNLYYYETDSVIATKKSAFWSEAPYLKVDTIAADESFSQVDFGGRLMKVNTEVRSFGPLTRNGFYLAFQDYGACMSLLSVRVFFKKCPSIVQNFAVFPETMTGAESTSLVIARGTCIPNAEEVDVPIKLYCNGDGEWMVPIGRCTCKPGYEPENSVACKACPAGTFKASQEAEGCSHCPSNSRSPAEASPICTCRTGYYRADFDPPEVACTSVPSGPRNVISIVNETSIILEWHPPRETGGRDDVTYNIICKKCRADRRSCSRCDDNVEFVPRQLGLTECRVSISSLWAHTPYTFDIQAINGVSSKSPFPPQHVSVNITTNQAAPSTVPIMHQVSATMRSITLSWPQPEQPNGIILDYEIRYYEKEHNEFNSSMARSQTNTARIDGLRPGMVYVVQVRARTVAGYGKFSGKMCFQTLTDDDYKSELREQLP
Procedure: Studies were conducted to confirm that A20 chemicals can effectively target the human Eph/Ephrin proteins. Octet system was used to first characterize the biophysical interactions of the human B class Eph and Ephrin proteins, and then was tested to assess how A20 may disrupt the interactions. Since the human and rodent proteins are highly conserved, and essentially identical, with EphB2 sharing 99.5% identity between human and mouse, with only 5 of ~1,000 amino acids different, any species-specific differences were not anticipated. Therefore, commercially available human EphrinB1-Fc (EB1), EphrinB2-Fc (EB2), and EphrinB3-Fc (EB3) ectodomain proteins were sparsely immobilized onto biosensors and then exposed to 50 nM of soluble human EphB1-His, EphB2-His, and EphB4-His ectodomains for 800 sec association and 1,000 sec dissociation steps with a total of nine different interactions analyzed. In the absence of A20 chemical, the immobilized human EphrinB proteins bound to their appropriate human EphB target proteins; with EphrinB1 only bound EphB1 and EphB2, EphrinB2 bound all three EphB1, EphB2, and EphB4, and EphrinB3 only bound EphB1 and EphB2 (FIG. 19A-19B).
Addition of compound also altered dissociation kinetics. […] This is referred to as the “unsurmountable” component of the Eph-Ephrin interaction (FIG. 21C). Additionally, AUC data was graphed for these runs (FIG. 21D). […] For EB2-EphB4, the dimer:tetramer ratio was 83:8 in the presence of A20 and was not much different from the no compound control run because it is already a strong dimer-driven interaction. […] A similar though more muted effect of A20 on tetramer accumulation was also observed for the other interactions of immobilized human EphrinB binding to soluble human EphB1 and EphB2 ectodomains (FIG. 22). The inhibitory effect of A20 is strongest on the EB2-EphB2 interaction with absolute IC50 reaching 1 μM, followed by the EB2-EphB1 interaction with absolute IC50-10 μM. […]

[1] = target: pre-formed EphrinB2-EphB2 tetramer (Homo sapiens, UniProt P29323); assay: Octet competition of pre-existing tetramers, human EphrinB2-EphB2; assay type: binding; conditions: 2, 10, 50 μM
pre-formed EphrinB2-EphB2 tetramer, sequence (P29323 19-543 limits assumed): as the sequence (P54763 19-543 limits assumed) above, with L104S, N154S, K520Q counted along it
Procedure: Biophysical studies were conducted to explore if A20 is able to disrupt pre-existing stable tetramers, focusing on interactions of immobilized human EphrinB2 binding to soluble human EphB1 and EphB2, and immobilized mouse EphB2 binding to mouse EphrinB2 (FIGS. 29A-29C). In these experiments, sensor-chip immobilized proteins were first exposed to 50 nM of their soluble target protein for an 800 sec association step and 1,000 sec dissociation step to generate pre-formed stable tetramers, which were then subjected to a 1,000 sec competition step that included either 0, 2, 10, or 50 μM concentrations of A20 salt compound. […] The ability of A20 to disrupt pre-existing tetramers was most pronounced for human EB2-EphB2 and cognate murine EphB2-EB2 experiments and indicated a gradual ongoing dose-dependent decline in tetramers throughout the 1,000 sec competition step (and beyond if allowed) and irrespective of whether the human EphrinB2 or murine EphB2 was the immobilized protein.

Q: With `Oc1c(Br)cc(CN2CCOCC2)c2cccnc12` [Compound 5, 7-bromo-5-(morpholinomethyl)quinolin-8-ol] as the compound, how does the “pulldown EB2-His binding to EphB1-Fc” value (EphB1-Fc / EB2-His) read?
A: strongly reduced EB2-His binding to EphB1-Fc; also recorded: reduces the ability of soluble EB2-His to bind to immobilized EphB1-Fc

Q: And the “pulldown EphB2 binding to EB2-His” value (EphB2-His-Fc / EB2-His)?
A: strong dose-dependent ability to antagonize EphB2-His-Fc protein binding to EB2-His

Q: And the IC50 (EphB2-His-Fc / EB2-His; pulldown, EphB2)?
A: ~10 µM

Q: And the “pulldown EphB4-Fc binding to EB2-His” value (EphB4-Fc / EB2-His)?
A: only a weak ability to prevent EphB4-Fc from binding to EB2-His; also recorded: only weak/poor ability to antagonize soluble EB2-His binding

Q: And the “reduction of tetramer formation” value (EphrinB1-EphB1; EB1-EphB1, A20)?
A: 15%

Q: What about the “antagonism of EphrinB1/EphrinB3 binding” value (EphrinB1-EphB1; EphB1/EphB2 with EB1 and EB3, species not given) of the same compound?
A: can also antagonize EphB1/EphB2 proteins from binding to EphrinB1 (EB1) and EphrinB3 (EB3) proteins

Q: What about the IC (maximum) (EphrinB1-EphB1; read-out: concentration producing maximum inhibition) of the same compound?
A: 1 µM

Q: And the “competition of pre-formed tetramers” value [1]?
A: able to compete away in a dose-dependent manner a significant amount of the stable pre-formed tetramer complexes
